Experimental data reported in BindingDB's records for patent US20250289799 (Jiangsu Yahong Meditech Co., 2025).

Target: Ubiquitin carboxyl-terminal hydrolase 1/WD repeat-containing protein 48 (Homo sapiens, UniProt O94782+Q8TAF3)
Assay: In Vitro USP1  Inhibitory Activity
Protocol: Experimental Methods1) Preparation of 1× assay buffer: 1× assay buffer (modified Tris buffer) was prepared;2) Compound dilution: The compound was transferred to the assay plate by Echo.

Ubiquitin carboxyl-terminal hydrolase 1/WD repeat-containing protein 48, sequence (O94782 whole entry): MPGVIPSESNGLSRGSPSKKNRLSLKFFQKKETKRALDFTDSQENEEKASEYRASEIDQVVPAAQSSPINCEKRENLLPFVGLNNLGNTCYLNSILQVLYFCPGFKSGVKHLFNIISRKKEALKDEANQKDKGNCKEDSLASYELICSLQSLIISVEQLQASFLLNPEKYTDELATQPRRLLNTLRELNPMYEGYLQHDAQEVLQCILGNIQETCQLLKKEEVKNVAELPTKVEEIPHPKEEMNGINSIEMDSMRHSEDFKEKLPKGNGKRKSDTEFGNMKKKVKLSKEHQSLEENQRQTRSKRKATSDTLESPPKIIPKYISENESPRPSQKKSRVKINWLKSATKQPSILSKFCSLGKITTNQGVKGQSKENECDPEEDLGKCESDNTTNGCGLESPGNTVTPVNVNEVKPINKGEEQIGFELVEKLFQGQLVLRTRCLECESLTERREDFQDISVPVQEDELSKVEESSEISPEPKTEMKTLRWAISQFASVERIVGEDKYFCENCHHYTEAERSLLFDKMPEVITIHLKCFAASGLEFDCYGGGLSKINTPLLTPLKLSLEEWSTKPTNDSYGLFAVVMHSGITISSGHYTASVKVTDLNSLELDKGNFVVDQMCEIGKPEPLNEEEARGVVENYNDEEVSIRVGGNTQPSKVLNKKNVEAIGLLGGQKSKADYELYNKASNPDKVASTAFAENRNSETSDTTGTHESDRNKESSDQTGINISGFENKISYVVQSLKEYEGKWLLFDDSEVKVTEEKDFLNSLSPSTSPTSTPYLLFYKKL
Ubiquitin carboxyl-terminal hydrolase 1/WD repeat-containing protein 48, sequence (Q8TAF3 whole entry): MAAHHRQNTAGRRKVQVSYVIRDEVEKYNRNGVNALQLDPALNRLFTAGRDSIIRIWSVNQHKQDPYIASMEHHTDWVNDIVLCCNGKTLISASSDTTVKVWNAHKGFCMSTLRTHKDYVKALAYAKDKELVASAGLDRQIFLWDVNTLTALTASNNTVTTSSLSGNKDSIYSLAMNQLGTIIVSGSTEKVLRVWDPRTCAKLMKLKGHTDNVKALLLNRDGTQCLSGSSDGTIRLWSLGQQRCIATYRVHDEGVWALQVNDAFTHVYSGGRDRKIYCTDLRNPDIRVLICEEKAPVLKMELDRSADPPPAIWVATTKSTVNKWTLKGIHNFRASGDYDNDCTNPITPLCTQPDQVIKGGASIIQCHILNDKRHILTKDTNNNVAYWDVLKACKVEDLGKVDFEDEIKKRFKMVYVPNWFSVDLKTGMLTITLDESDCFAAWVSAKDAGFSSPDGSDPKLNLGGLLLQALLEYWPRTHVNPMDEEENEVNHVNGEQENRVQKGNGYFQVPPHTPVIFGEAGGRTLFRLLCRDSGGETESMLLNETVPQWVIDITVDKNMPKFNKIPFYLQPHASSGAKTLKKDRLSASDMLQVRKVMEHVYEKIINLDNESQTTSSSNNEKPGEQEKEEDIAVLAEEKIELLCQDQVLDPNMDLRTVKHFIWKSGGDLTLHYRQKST

IC50 | Compound
4.4 nM | COc1cc(-n2nc(C(F)(F)F)cc2C)ccc1CNc1nc(-c2c(OC)ncnc2C2CC2)ncc1OC [US20250289799, Example 102]
6.1 nM | CC(C)Oc1cnc(-c2ccccc2C(C)C)nc1NCC1CCN(c2nc(C(F)(F)F)cn2C)CC1 [US20250289799, Example 72]
3.9 nM | CC(C)c1ccccc1-c1ncc(C(F)(F)F)c(NCc2ccc(-c3nc(C(F)(F)F)cn3C)cc2)n1 [US20250289799, Example 17]
2.3 nM | CC(C)c1ccccc1-c1nc(NCc2ccc(-c3nc(C(F)(F)F)cn3C)cc2)c2ncccc2n1 [US20250289799, Example 40]
10 nM | CC(C)c1ccccc1-c1ncc(N2CCN(C)CC2)c(NCc2ccc(-c3nc(C(F)(F)F)cn3C)cc2)n1 [US20250289799, Example 88]
75 nM | COc1cnc(-c2c(OC)cnn2C(C)C)nc1N(C)CC1CCN(c2ccccn2)CC1 [US20250289799, Example 177]
2.1 nM | CC(C)n1ncc(Cl)c1-c1nc(NCc2ccc(-c3ccccn3)cc2)c2occc2n1 [US20250289799, Example 166]
3.2 nM | CCOCCOc1ccc(CNc2nc(-c3ccccc3C(C)C)ncc2OC)cc1 [US20250289799, Example 68]
648 nM | COc1ncnc(C2CC2)c1-c1nc(NCc2ccc3c(c2)CCN(C)C3=O)c2occc2n1 [US20250289799, Example 114]
94 nM | COc1cnc(-c2c(OC)cnn2C2CC2)nc1NCC1CCN(c2nc(C(F)(F)F)cn2C)CC1 [US20250289799, Example 184]
37 nM | COc1ncnc(C2CC2)c1-c1ncc2c(n1)N(CC1CCN(c3nc(C(F)(F)F)cn3C)CC1)C(=O)CO2 [US20250289799, Example 30]
51 nM | COc1cnc(-c2cncnc2C2CC2)nc1NCc1ccc(-c2nc(C(F)(F)F)cn2C)cc1 [US20250289799, Example 194]
5.6 nM | COc1cnc(-c2ccccc2C(C)C)nc1NCc1ccc(-c2ccc(C)cn2)cc1 [US20250289799, Example 66]
3.7 nM | COc1cnc(-c2ccccc2C(C)C)nc1NCc1ccc(-c2ccccn2)cc1 [US20250289799, Example 64]
1.3 nM | COC(=O)Cc1cnc(-c2ccccc2C(C)C)nc1NCc1ccc(-c2nc(C(F)(F)F)cn2C)cc1 [US20250289799, Example 91]
43 nM | COc1cnc(-c2c(C)cnn2C2CC2)nc1N(O)Cc1ccc(-c2nc(C(F)(F)F)cn2C)cc1 [US20250289799, Example 205]
8.8 nM | CC(C)c1ccccc1-c1ncc2c(n1)N(CC1CCN(c3nc(C(F)(F)F)cn3C)CC1)C(=O)CO2 [US20250289799, Example 24]
12 nM | COc1cnc(-c2c(C)cnn2C(C)C)nc1N(C)Cc1ccc(-n2nc(C(F)(F)F)cc2C)cc1 [US20250289799, Example 201]
15 nM | COc1ncnc(C2CC2)c1-c1ncc(OC(F)F)c(NCC2CCN(c3nc(C(F)(F)F)cn3C)CC2)n1 [US20250289799, Example 133]
3.5 nM | COc1cnc(-c2c(OC)ncnc2C2CC2)nc1N(C#N)Cc1ccc(-c2nc(C(F)(F)F)cn2C)cc1 [US20250289799, Example 206]
1260 nM | COc1cnc(-c2ccccc2C(C)C)nc1NCc1ccc2c(c1)CN(C1CCC(=O)NC1=O)C2=O (centres undefined) [US20250289799, Example 41]
68.6 nM | COc1cnc(-c2cccc3ccn(C)c23)nc1NCc1ccc(-n2nc(C(F)(F)F)cc2C)cc1 [US20250289799, Example 144]

IC50 | Compound
5.3 nM | COc1cnc(-c2ccccc2C(C)C)nc1NCc1ccc(OCc2ccccn2)cc1 [US20250289799, Example 67]
13 nM | COc1ncnc(C2CC2)c1-c1ncc(Cl)c(NCc2ccc(-c3nc(C(F)(F)F)cn3CF)cc2)n1 [US20250289799, Example 126]
564 nM | COc1ncnc(C2CC2)c1-c1ncc2c(n1)N(CC1CCN(c3ccccn3)CC1)CCO2 [US20250289799, Example 10]
3.6 nM | COc1cnc(-c2ccccc2N(C)C)nc1NCc1ccc(-n2nc(C(F)(F)F)cc2C)cc1 [US20250289799, Example 160]
31 nM | COc1cnc(-c2cccc3ccn(C)c23)nc1NCc1ccc(-c2nc(C(F)(F)F)cn2C)cc1 [US20250289799, Example 143]
3.1 nM | COc1ncnc(C2CC2)c1-c1ncc(Cl)c(NCc2ccc(-c3nc(C(F)(F)F)cn3C3CC3)cc2)n1 [US20250289799, Example 125]
14 nM | COc1cnc(-c2ccccc2C(C)C)nc1N(C)CC1CCN(c2ccccn2)CC1 [US20250289799, Example 2]
1.5 nM | COc1cnc(-c2c(OC)ncnc2C2CC2)nc1N(C)Cc1ccc(-c2nc(C(F)(F)F)cn2C(C)C)cc1 [US20250289799, Example 93]
15.1 nM | CCOCCOc1ccc(CNc2nc(-c3c(OC)ncnc3C3CC3)ncc2OC)cc1 [US20250289799, Example 99]
1.2 nM | CC(C)c1ccccc1-c1nc(NCc2ccc(-c3nc(C(F)(F)F)cn3C)cc2)c2occc2n1 [US20250289799, Example 33]
15 nM | COc1cc(CNc2nc(-c3c(OC)ncnc3C3CC3)ncc2OC)ccc1-c1nc(C(F)(F)F)cn1C [US20250289799, Example 101]
56 nM | COc1cnc(-c2c(OC)cnn2C(C)C)nc1NCC1CCN(c2nc(C(F)(F)F)cn2C)CC1 [US20250289799, Example 179]
24 nM | COc1cnc(-c2c(OC)ncnc2C2CC2)nc1N(C)Cc1ccc(-c2ccccn2)cc1 [US20250289799, Example 19]
2.3 nM | COc1cnc(-c2c(Cl)cnn2C(C)C)nc1NCC1CCN(c2nc(C(F)(F)F)cn2C)CC1 [US20250289799, Example 163]
91.5 nM | COc1ncnc(C2CC2)c1-c1ncc2c(n1)N(CC1CCN(c3nc(C(F)(F)F)cn3C)CC1)CCO2 [US20250289799, Example 20]
6 nM | C#Cc1cnc(-c2c(OC)ncnc2C2CC2)nc1NCc1ccc(-c2nc(C(F)(F)F)cn2C)cc1 [US20250289799, Example 132]
4 nM | COc1cc(CNc2nc(-c3ccccc3C3CC3)nc3ccoc23)ccc1-c1nc(C(F)(F)F)cn1C [US20250289799, Example 176]
60 nM | COc1cnc(-c2c(OC)ncnc2C2CC2)nc1NCc1ccc(-c2nc(C)cn2C(F)F)cc1 [US20250289799, Example 105]
2.1 nM | COc1cnc(-c2ccccc2C(C)C)nc1N(C)CC1CCN(c2nc(C(F)(F)F)cn2C)CC1 [US20250289799, Example 62]
873 nM | CC(C)Oc1cnc(-c2ccccc2C(C)C)nc1NCC12CCC(c3ccc(C(F)(F)F)cn3)(CC1)CC2 [US20250289799, Example 74]
1.2 nM | Cc1cc(C(F)(F)F)nn1-c1ccc(CNc2nc(-c3c(Cl)cnn3C(C)C)nc3ccoc23)cc1 [US20250289799, Example 168]
58 nM | COc1ncnc(C2CC2)c1-c1nc(NCc2ccc(OC3CC(OC)C3)cc2)c2occc2n1 (centres undefined) [US20250289799, Example 118]
